Data taken from article PMC9888311, “Neonatal NET-Inhibitory Factor improves survival in the cecal ligation and puncture model of polymicrobial sepsis by inhibiting neutrophil extracellular traps” (Frontiers in Immunology, 2023).
Where no end group is shown, it is not given here.

Tests used:
[1] = tested on: neutrophil extracellular traps (NETs), plasma; test: Plasma NET formation (MPO-DNA complex ELISA); format: in vivo, mouse (outbred Swiss Webster); settings: 24 hours after CLP; for plasma MPO-DNA complexes compared to other CLP treatment groups: nNIF 1 mg/kg IV or meropenem 25 mg/kg IP at 4 and 10 hours after CLP, N=3-5 per group, two experiments
Protocol: An in-house ELISA was used to quantify MPO-DNA complexes in plasma and peritoneal fluid from sham and CLP mice 24 hours after the surgical procedure ([24], [27]). Briefly, after overnight coating with anti-MPO capture antibody in calcium carbonate coating buffer (2 µg/ml; 0400-0002, Bio-Rad) at 4°C, a 96-well plate was blocked with 2.5% bovine serum albumin in PBS for 2 hours at room temperature. The plate was subsequently washed, before incubating for 90 minutes at room temperature with 10% peritoneal fluid in blocking buffer. The plate was washed five times, and then incubated for 90 minutes at room temperature with anti-DNA detection antibody (1:20; Cell Death detection ELISA, 11544675001, Sigma). After five washes, the plate was developed with TMB substrate solution (Sigma).

neutrophil CD11b = test: Peritoneal fluid neutrophil CD11b expression (flow cytometry); format: in vivo, mouse (outbred Swiss Webster); settings: 24 hours after CLP; nNIF 1 mg/kg or meropenem 25 mg/kg at 4 and 10 hours; compared to scrambled peptide control-treated CLP mice
Protocol: (§1) Twenty-four hours after CLP or sham surgery, total white blood cell and differential neutrophil counts were determined both in whole blood samples collected from orbital vein using heparinized capillaries tubes and peritoneal fluid by washing with 3 mL of PBS, respectively. Then, samples were incubated with CD45 APC-Cy7 (Biolegend), CD11b PE-Cy7 (EBioscience), Ly6G BV510 (Biolegend), and CD16/CD32 (Fc-block, EBioscience) for 30 minutes at 37 °C. Thirty minutes later, cells were washed, fixed, and ran on a Beckman Coulter Cytoflex located in the University of Utah Flow Cytometry Core.

[2] = tested on: aerobic bacteria in peritoneal fluid; test: Peritoneal fluid aerobic bacterial colony forming units; format: in vivo, mouse (outbred Swiss Webster); settings: 24 hours after CLP; nNIF 1 mg/kg or meropenem 25 mg/kg at 4 and 10 hours; serial dilution, LB-agar, 37°C 24 hours; N=5-8
Protocol: (§2) Peritoneal fluid cytokines were analyzed using a mouse Cytokine/Chemokine Panel I Multiplex Array (Millipore Sigma catalog# HCYTMAG60-PMX41) according to manufacturer’s instructions on a Luminex 200 instrument. Bacterial counts in whole blood and peritoneal lavage were determined 24 hours after CLP. Briefly, peritoneal fluid and blood samples were collected, serially diluted, plated on LB-agar dishes, and incubated at 37°C for 24 hours. The number of bacterial colonies was counted and expressed as CFU/mL.

[3] = tested on: aerobic bacteria in whole blood; test: Whole blood aerobic bacterial colony forming units; format: in vivo, mouse (outbred Swiss Webster); settings: for peripheral blood bacterial CFUs at 24 hours: 24 hours after CLP, nNIF 1 mg/kg or meropenem 25 mg/kg at 4 and 10 hours, serial dilution, LB-agar, 37°C 24 hours, N=5-8
Protocol: as §2, with “Bacterial counts in whole blood and peritoneal lavage were determined 24 hours after CLP.” left out

[4] = tested on: CLP model of polymicrobial sepsis; test: Blinded clinical illness severity score after CLP; format: in vivo, mouse (outbred Swiss Webster); settings: compared to vehicle control
Protocol: Mice were anesthetized with 3% isoflurane in an induction chamber, and anesthesia was maintained by use of inhalation via nose cone. Sepsis was induced by cecal ligation and puncture (CLP) as previously described ([30], [31]). […] The animals received subcutaneous sterile isotonic saline (0.5 mL) for fluid resuscitation immediately after surgery. Sham-operated mice were subjected to identical procedures, except that ligation and puncture of the cecum was omitted. Survival of mice subjected to CLP or sham injury was determined daily for 6 days. Twenty-four and 48 hours after CLP, all animals were scored for clinical illness severity as previously described ([32]) by an examiner blinded to treatment arm. In this assessment, higher scores reflect increased illness severity with non-surviving mice receiving a score of 10. These mice were included in the statistical analysis. In additional experiments, mature Swiss-webster mice were treated with sham surgery or CLP procedure. At 4 hours after surgery, mice underwent blinded clinical illness severity assessment, measurement of body weight and temperature, peritoneal fluid and whole blood neutrophil counts, whole blood platelet counts, and plasma creatinine level determination.

IL-10 = test: Peritoneal fluid cytokine multiplex array, IL-10; format: in vivo, mouse (outbred Swiss Webster); settings: 24 h after CLP; nNIF 1 mg/kg at 4 and 10 hours; N=5-9
Protocol: as §2

neutrophils = neutrophils exposed to nNIF; cited from earlier work
From the text: When considering the low DNA staining on confocal imaging of peritoneal leukocytes, it may be that the NET inhibition contributes to decreased endothelial dysfunction ([48]) and prevents immunothrombosis ([22]) which then leads to decreased inflammation. Alternatively, or in combination, the lack of NETs may lead to decreased opportunities to capture bacteria and thereby limit the chance that circulating PMNs will recognize and become acti ...

TNF-α = test: Peritoneal fluid cytokine multiplex array, TNF-α; format: in vivo, mouse (outbred Swiss Webster); settings: 24 h after CLP; nNIF 1 mg/kg at 4 and 10 hours; compared to all other treatment groups; N=5-9
Protocol: as §2

[5] = tested on: peritoneal fluid leukocytes; test: Peritoneal fluid WBC and neutrophil counts (flow cytometry); format: in vivo, mouse (outbred Swiss Webster); settings: 24 hours after CLP; nNIF 1 mg/kg IV at 4 and 10 hours after CLP; N=5-9
Protocol: as §1

IL-6 = test: Peritoneal fluid cytokine multiplex array, IL-6; format: in vivo, mouse (outbred Swiss Webster); settings: 24 h after CLP; nNIF 1 mg/kg at 4 and 10 hours; N=5-9
Protocol: as §2

whole blood leukocytes = test: Whole blood WBC and neutrophil counts (flow cytometry); format: in vivo, mouse (outbred Swiss Webster); settings: 24 hours after CLP; nNIF 1 mg/kg IV at 4 and 10 hours after CLP; N=3-5
Protocol: as §1

[6] = single dose 10 mg/kg, retro-orbital venous injection; LC/MS/MS; N=2-3 mice/time point
Protocol: PK plasma sample generation – Mature Swiss-Webster mice were inject ed with nNIF (10 mg/kg,
0.003% DMSO in PBS) via retro-orbital venous injection. Blood samples were obtain ed via
cheek bleed and cardiac puncture at 5, 15, 30, and 45 minutes, and at 1, 4, 8, 12, 24, and 48 hours
after nNIF injection. Only three blood samples were drawn from each indiv idual mouse, and
multiple mice were used to generate 2 -3 plasma samples per timepoint for PK analysis. Blood
samples were collected i n heparin coated capillary tubes, centrifuged at 1000 rpm for 10 minutes,
and snap-frozen in liquid nitrogen. Plasma samples were kept frozen at -80°C until analysis.
Mouse plasma PK quantitative bioanalysis – Flash -frozen mouse samples were thawed on ice
and spiked with 100 nM nNIF-H; precipitated with five volumes of 90% acetonitrile, 1% acetic
acid, and 0.1% formic acid in water; and filtered through a Phree Phosphol ipid Removal
Extraction Plate (Pheno menex). Standards with known concent rations of nNIF (100 pM to 25
μM) and nNIF-H (100 n M) spiked into mouse plasma were p repared using the same methods.
Supernatants were an alyzed by LC/MS/MS on an ExionLC UHPLC system coupled to a QTRAP […]
positive-ion mode. Mass transitions (m/z) used for quantitation were 846.9/ 976.1 and
determined from the nNIF/nNIF-H peak area ratio in extracted-ion chromat ograms compared […]

[7] = nNIF 1 mg/kg IV at 4 and 10 hours after CLP

Molecule | plasma MPO-DNA complexes compared to other CLP treatment groups [1] | plasma MPO-DNA complexes compared to the sham surgery group ([1]; nNIF-SCR 1 mg/kg IV or meropenem 25 mg/kg IP at 4 and 10 hours after CLP) | neutrophil CD11b expression in peritoneal fluid (neutrophil CD11b) | peritoneal fluid bacterial CFUs at 24 hours [2] | peripheral blood bacterial CFUs at 24 hours [3] | illness severity score at 48 hours ([4]; nNIF 0.5 mg/kg IV at 4 and 10 hours after CLP) | illness severity score at 24 hours [4, 7] | illness severity score at 48 hours [4, 7] | IL-10 level in peritoneal fluid (IL-10) | whole blood bacterial CFUs at 96 hours ([3]; 96 hours after CLP, nNIF 1 mg/kg, elevated at 24 hours, meropenem comparator 8 mg/kg, N=3-4) | neutrophil ability to generate reactive-oxygen species and phagocytize E. coli bioparticles (neutrophils) | TNF-α level in peritoneal fluid (TNF-α) | peritoneal WBC and neutrophil counts [5] | IL-6 level in peritoneal fluid (IL-6) | whole blood white blood cell and neutrophil counts (whole blood leukocytes) | nNIF plasma concentration-time course [6]
C[C@@H](O)[C@H]1C(=O)N2C(C(=O)O)=C(S[C@@H]3CN[C@H](C(=O)N(C)C)C3)[C@H](C)[C@H]12 [meropenem, reference compound] | equivalent between the vehicle and meropenem arms | significantly increased MPO-DNA complexes | no decrease | statistically significant decrease | statistically significant decrease | – | – | – | – | – | – | – | – | – | – | –
KFNKPFVFLMIEQNTKSPLFMGKVVNPTQ-OH [nNIF, neonatal NET-Inhibitory Factor] | significant reduction in MPO-DNA complexes | – | significantly decreased neutrophil CD11b expression | higher CFUs | higher CFUs | improvement in the illness severity scores | improvement in the illness severity scores | improvement in the illness severity scores | lack of an nNIF-associated alteration in IL-10 levels | returned to meropenem alone treatment levels | still maintain their ability | decreased TNF-α levels in peritoneal fluid | without altering peritoneal WBC and neutrophil counts | decreased compared to meropenem treated mice but not compared to the nNIF-SCR treatment group | without affecting white blood cell or neutrophil counts | initial rapid decrease in nNIF plasma concentrations followed by a slower rate of decay
